In patent US10413535B2, “Pharmaceutical compositions comprising an integrin ALPHA4 antagonist for use in treating ocular inflammatory conditions” (AXEROVISION, INC., priority 2015, dated 2019):
Read-outs that look alike come from different tables or passages of the source.

What was measured:
[1] = system: RPMI 8866 binding to CS-1; assay: CS-1 cell adhesion assay, RPMI 8866 cells; type: cell-based; conditions: Homo sapiens; RPMI 8866 cells to CS-1; identical duplicate values; read-out: Inhibition of cell adhesion (IC50)
Description: Jurkat J6 cells (human lymphoblast cell line) were grown as a suspension culture in RPMI 1640 supplemented with FCS (10%) and glutamine (2 mM). RPMI8866 cells (human B lymphoid cell line) were grown as a suspension culture in RPMI 1640 supplemented with FCS (10%) and glutamine (2 mM). RBL-2H3 cells (rat basophilic cell line) were cultured in Eagle's MEM plus Earles salts supplemented with 2 mM L-glutamine, 1 mM sodium pyruvate, 1× non-essential amino acids, 1 mM Na pyruvate 10% heat inactivated foetal calf serum.
Polystyrene 96-well microtitre plates were coated with CS-1 (connecting segment 1, a cell attachment domain of fibronectin) at a concentration of 0.01 mg/mL in bicarbonate buffer overnight at 4° C. The solution was aspirated and the plates washed twice with PBS. The plates were then incubated at room temperature in the presence of 3% BSA for 60 min, ‘flicked’ to expel the BSA and washed twice in bicarbonate buffer. J6 or RPMI cells (as required) were labelled with the fluorescent dye BCECF-AM (10 μM and 6×10^6 cells/mL) for 10 min at 37° C. before the excess was removed by centrifugation at 500 g for 5 min and the cells resuspended at a cell concentration of 1.2×10^7 cells/mL in HBSS. Equal volumes of HBSS containing the compound of formula I (over concentration range 19.0 pM to 5 μM) and cells were added to the CS-1 coated plates. […] The plates were counted in a Wallac Viktor.

[2] = Toxicokinetics in 13-week topical ocular dog study; conditions: in vivo, topical or ocular
Description: GW559090A was given to Beagle Dogs by topical ocular administration for 13 weeks. Animals were dosed six or twelve times per day, with one hour between doses. Treatment groups were: (1) vehicle (12 times a day), (2) 30 mg/mL/occasion given six times a day, (3) 50 mg/mL/occasion given six times a day, or (4) 50 mg/mL/occasion, given 12 times a day.
GW559090A was formulated as a stock solution in 25 mM phosphate buffer with 0.5% sodium chloride to provide a 50 mg/mL stock solution, which was used for administration to Groups 3 or 4, or further diluted with 25 mM phosphate buffer with 0.75% sodium chloride to provide a 30 mg/mL solution for administration to Group 2.
During the 13 week treatment period dogs received daily topical ocular doses of GW559090 or vehicle (12 times a day) at a constant dose volume of 0.06 mL (given 6 or 12 times a day, with one hour between doses). The test article formulation or vehicle was carefully dropped into the everted lower eyelid of the left eye from a suitable distance, to prevent contact of the positive displacement pipette with the eye. The lower and upper lids were then gently held together for approximately five seconds, to prevent loss of dose and aid even distribution across the external ocular surface. The un-dosed eye was not manipulated at any time and served as a within animal untreated control site.

Structure (SMILES): Cc1ccccc1OCC(=O)N[C@@H](CC(C)C)C(=O)N[C@@H](Cc1ccc(OC(=O)N2CCC(C(N)=O)CC2)cc1)C(=O)O [GW559090, (2S)-3-[4-({[4-(Aminocarbonyl)-1-piperidinyl]carbonyl}oxy)phenyl]-2-[((2S)-4-methyl-2-{[2-(2-methylphenoxy)acetyl]amino}pentanoyl)amino]propanoic acid]
- IC50 [1]: 24.5 nM
- AUC(0-t) ([2]; both sexes, Beagle, 50 mg/mL/occasion, dogs, males and females combined, 50 mg/mL/occasion 12 times a day, Week 13, read-out: AUC0-1 exposure at NOAEL): 11.2 ng·h/mL
- Estimated AUC0-24 ([2]; both sexes, Beagle, 50 mg/mL/occasion, dogs, males and females combined, 50 mg/mL/occasion 12 times a day, Week 13, read-out: Estimated AUC0-24 at NOAEL): 134 ng·h/mL
- Cmax ([2]; both sexes, Beagle, dogs, males and females combined, 50 mg/mL/occasion 12 times a day, Week 13, read-out: Cmax at NOAEL): 28.7 ng/mL
- Tmax ([2]; female, beagle, 30 mg/mL/occasion, female dogs, 30 mg/mL, 6 daily doses, Day 1): 30 min
- AUC(0-t) ([2]; female, beagle, 30 mg/mL/occasion, female dogs, 30 mg/mL, 6 daily doses, Day 1, read-out: AUC0-1): 5.27 ng·h/mL
- AUC(0-t) ([2]; female, beagle, 30 mg/mL/occasion, female dogs, 30 mg/mL, 6 daily doses, Day 1, read-out: AUC0-24): 31.6 ng·h/mL
- Cmax ([2]; female, beagle, 30 mg/mL/occasion, female dogs, 30 mg/mL, 6 daily doses, Day 1, read-out: Cmax): 12.2 ng/mL
- Tmax ([2]; female, beagle, 30 mg/mL/occasion, female dogs, 30 mg/mL, 6 daily doses, Week 4): 22.5 min
- AUC(0-t) ([2]; female, beagle, 30 mg/mL/occasion, female dogs, 30 mg/mL, 6 daily doses, Week 4, read-out: AUC0-1): 4.28 ng·h/mL
- AUC(0-t) ([2]; female, beagle, 30 mg/mL/occasion, female dogs, 30 mg/mL, 6 daily doses, Week 4, read-out: AUC0-24): 25.7 ng·h/mL
- Cmax ([2]; female, beagle, 30 mg/mL/occasion, female dogs, 30 mg/mL, 6 daily doses, Week 4, read-out: Cmax): 9.34 ng/mL
- Tmax ([2]; female, beagle, 30 mg/mL/occasion, female dogs, 30 mg/mL, 6 daily doses, Week 13): 15 min
- AUC(0-t) ([2]; female, beagle, 30 mg/mL/occasion, female dogs, 30 mg/mL, 6 daily doses, Week 13, read-out: AUC0-1): 6.05 ng·h/mL
- AUC(0-t) ([2]; female, beagle, 30 mg/mL/occasion, female dogs, 30 mg/mL, 6 daily doses, Week 13, read-out: AUC0-24): 36.3 ng·h/mL
- Cmax ([2]; female, beagle, 30 mg/mL/occasion, female dogs, 30 mg/mL, 6 daily doses, Week 13, read-out: Cmax): 17.5 ng/mL
- Tmax ([2]; female, beagle, 50 mg/mL/occasion, female dogs, 50 mg/mL, 6 daily doses, Day 1): 15 min
- AUC(0-t) ([2]; female, beagle, 50 mg/mL/occasion, female dogs, 50 mg/mL, 6 daily doses, Day 1, read-out: AUC0-1): 8.79 ng·h/mL
- AUC(0-t) ([2]; female, beagle, 50 mg/mL/occasion, female dogs, 50 mg/mL, 6 daily doses, Day 1, read-out: AUC0-24): 52.7 ng·h/mL
- Cmax ([2]; female, beagle, 50 mg/mL/occasion, female dogs, 50 mg/mL, 6 daily doses, Day 1, read-out: Cmax): 17 ng/mL
- Tmax ([2]; female, beagle, 50 mg/mL/occasion, female dogs, 50 mg/mL, 6 daily doses, Week 4): 15 min
- AUC(0-t) ([2]; female, beagle, 50 mg/mL/occasion, female dogs, 50 mg/mL, 6 daily doses, Week 4, read-out: AUC0-1): 5.26 ng·h/mL
- AUC(0-t) ([2]; female, beagle, 50 mg/mL/occasion, female dogs, 50 mg/mL, 6 daily doses, Week 4, read-out: AUC0-24): 31.6 ng·h/mL
- Cmax ([2]; female, beagle, 50 mg/mL/occasion, female dogs, 50 mg/mL, 6 daily doses, Week 4, read-out: Cmax): 11.4 ng/mL
- Tmax ([2]; female, beagle, 50 mg/mL/occasion, female dogs, 50 mg/mL, 6 daily doses, Week 13): 10 min
- AUC(0-t) ([2]; female, beagle, 50 mg/mL/occasion, female dogs, 50 mg/mL, 6 daily doses, Week 13, read-out: AUC0-1): 6.64 ng·h/mL
- AUC(0-t) ([2]; female, beagle, 50 mg/mL/occasion, female dogs, 50 mg/mL, 6 daily doses, Week 13, read-out: AUC0-24): 39.8 ng·h/mL
- Cmax ([2]; female, beagle, 50 mg/mL/occasion, female dogs, 50 mg/mL, 6 daily doses, Week 13, read-out: Cmax): 17.9 ng/mL
- Tmax ([2]; female, beagle, 50 mg/mL/occasion, female dogs, 50 mg/mL, 12 daily doses, Day 1): 30 min
- AUC(0-t) ([2]; female, beagle, 50 mg/mL/occasion, female dogs, 50 mg/mL, 12 daily doses, Day 1, read-out: AUC0-1): 12.8 ng·h/mL
- AUC(0-t) ([2]; female, beagle, 50 mg/mL/occasion, female dogs, 50 mg/mL, 12 daily doses, Day 1, read-out: AUC0-24): 153 ng·h/mL
- Cmax ([2]; female, beagle, 50 mg/mL/occasion, female dogs, 50 mg/mL, 12 daily doses, Day 1, read-out: Cmax): 21.8 ng/mL
- Tmax ([2]; female, beagle, 50 mg/mL/occasion, female dogs, 50 mg/mL, 12 daily doses, Week 4): 10 min
- AUC(0-t) ([2]; female, beagle, 50 mg/mL/occasion, female dogs, 50 mg/mL, 12 daily doses, Week 4, read-out: AUC0-1): 6.77 ng·h/mL
- AUC(0-t) ([2]; female, beagle, 50 mg/mL/occasion, female dogs, 50 mg/mL, 12 daily doses, Week 4, read-out: AUC0-24): 81.2 ng·h/mL
- Cmax ([2]; female, beagle, 50 mg/mL/occasion, female dogs, 50 mg/mL, 12 daily doses, Week 4, read-out: Cmax): 14.5 ng/mL
- Tmax ([2]; female, beagle, 50 mg/mL/occasion, female dogs, 50 mg/mL, 12 daily doses, Week 13): 15 min
